The target in data set [1] is human PGP membranes (PGP-associated ATPase) (Homo sapiens, UniProt P08183). Conditions: for ATPase Activity, basal activity subtracted: human, 20 min. The protocol:
The DMSO concentration (1.0%) was constant for all conditions within the experiment.
The test substances were incubated in the PGP membranes and supplemented with MgATP, with and without sodium orthovanadate present. Orthovanadate inhibits PGP by trapping MgADP in the nucleotide binding site. Thus, the ATPase activity measured in the presence of orthovanadate represents non-PGP ATPase activity and was subtracted from the activity generated without orthovanadate to yield ATPase activity.
(§1) ATPase assays were conducted in 96-well microtiter plates. A 0.06 mL reaction mixture containing 40 μg PGP membranes, test substance, and 4 mM MgATP, in buffer containing 50 mM Tris-MES, 2 mM EGTA, 50 mM KCl, 2 mM dithiothreitol, and 5 mM sodium azide, plus organic solvent was incubated at 37° C. for 20 minutes. […] Identical reaction mixtures containing 100 μM sodium orthovanadate were assayed in parallel. The reactions were stopped by the addition of 30 μl of 10% SDS+Antifoam A. The incubations were followed with addition of 200 μl of 35 mM Ammonium Molybdate in 15 mM Zinc Acetate: 10% Ascorbic Acid (1:4) and incubated for an additional 20 minutes at 37° C. Additionally, 0.06 mL aliquots of potassium phosphate standards prepared in the buffer described above, were incubated in the plates containing the test and control substances, with SDS and detection reagent added. The liberation of inorganic phosphate was detected by its absorbance at 800 nm and quantitated by comparing the absorbance to a phosphate standard curve. The concentration dependence of the PGP was analyzed for evidence of saturation of PGP-associated ATPase activity, and apparent kinetic parameters were calculated by non-linear regression.
as §1, with “plates.” for “plates. A 0.06 mL reaction mixture containing 40 μg PGP membranes, test substance, and 4 mM MgATP, in buffer containing 50 mM Tris-MES, 2 mM EGTA, 50 mM KCl, 2 mM dithiothreitol, and 5 mM sodium azide, plus organic solvent was incubated at 37° C. for 20 minutes.”, “activity.” for “activity, and apparent kinetic parameters were calculated by non-linear regression.”
as §1, with “plates.” for “plates. A 0.06 mL reaction mixture containing 40 μg PGP membranes, test substance, and 4 mM MgATP, in buffer containing 50 mM Tris-MES, 2 mM EGTA, 50 mM KCl, 2 mM dithiothreitol, and 5 mM sodium azide, plus organic solvent was incubated at 37° C. for 20 minutes.”

For a further data set, the target named is human PGP (Homo sapiens, UniProt P08183). Conditions: 15B-J vs CLA monolayers.
human PGP, sequence (P08183 whole entry): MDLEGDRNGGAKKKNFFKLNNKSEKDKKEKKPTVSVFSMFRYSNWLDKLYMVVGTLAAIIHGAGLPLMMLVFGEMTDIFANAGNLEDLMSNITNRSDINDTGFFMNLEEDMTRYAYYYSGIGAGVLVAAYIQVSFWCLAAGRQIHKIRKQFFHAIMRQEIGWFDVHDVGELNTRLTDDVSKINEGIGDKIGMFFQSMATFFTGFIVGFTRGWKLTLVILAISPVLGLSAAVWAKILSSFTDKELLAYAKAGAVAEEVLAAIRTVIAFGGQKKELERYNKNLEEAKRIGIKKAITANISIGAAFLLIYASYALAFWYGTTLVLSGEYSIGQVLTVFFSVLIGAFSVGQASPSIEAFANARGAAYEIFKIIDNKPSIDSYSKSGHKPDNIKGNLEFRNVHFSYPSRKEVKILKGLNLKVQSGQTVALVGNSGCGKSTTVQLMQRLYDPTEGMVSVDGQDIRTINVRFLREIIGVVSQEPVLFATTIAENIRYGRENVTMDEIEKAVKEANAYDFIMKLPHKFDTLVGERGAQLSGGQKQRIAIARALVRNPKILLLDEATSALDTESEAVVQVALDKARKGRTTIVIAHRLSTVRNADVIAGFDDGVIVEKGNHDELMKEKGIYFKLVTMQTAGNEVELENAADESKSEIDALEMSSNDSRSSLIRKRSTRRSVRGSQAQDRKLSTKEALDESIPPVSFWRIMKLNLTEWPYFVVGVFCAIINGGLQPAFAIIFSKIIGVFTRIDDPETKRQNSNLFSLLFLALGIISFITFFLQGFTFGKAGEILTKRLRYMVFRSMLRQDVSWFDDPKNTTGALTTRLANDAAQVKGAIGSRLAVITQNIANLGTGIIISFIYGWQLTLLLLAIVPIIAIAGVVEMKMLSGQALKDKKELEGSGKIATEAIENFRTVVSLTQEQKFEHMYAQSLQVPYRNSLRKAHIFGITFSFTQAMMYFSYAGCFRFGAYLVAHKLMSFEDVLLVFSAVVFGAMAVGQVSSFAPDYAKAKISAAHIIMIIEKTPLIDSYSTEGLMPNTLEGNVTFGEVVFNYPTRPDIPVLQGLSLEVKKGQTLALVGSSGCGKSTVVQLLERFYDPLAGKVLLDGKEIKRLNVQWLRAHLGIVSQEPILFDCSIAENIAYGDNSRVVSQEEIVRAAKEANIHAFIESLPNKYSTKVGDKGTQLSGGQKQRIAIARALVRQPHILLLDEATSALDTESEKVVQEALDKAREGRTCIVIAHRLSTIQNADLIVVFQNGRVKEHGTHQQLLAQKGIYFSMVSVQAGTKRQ

Like-named read-outs stand apart in the source and are kept apart here.

1 compound from US20030139352A1, “Inhibitors of ABC drug transporters in cancer cells” (priority 2001, published 2003) can be followed below.

human PGP membranes (PGP-associated ATPase), sequence (P08183 whole entry): as above

`CC(=O)O[C@H]1C(=O)[C@@]2(C)[C@H]([C@H](OC(=O)c3ccccc3)[C@]3(O)C[C@H](OC(=O)[C@H](O)[C@@H](NC(=O)c4ccccc4)c4ccccc4)C(C)=C1C3(C)C)[C@]1(OC(C)=O)CO[C@@H]1C[C@@H]2O` [Taxol, taxol]: in data set [1], the “effect on PGP-associated ATPase activity (in words)” value is on record as “stimulates PGP-associated ATPase activity in a dose dependent manner”. Moreover, the “ATPase Activity, basal activity subtracted” value is -0.3 nmol/mg/min in data set [1] (0.007 μM); -0.4 nmol/mg/min in data set [1] (0.01 μM); -0.9 nmol/mg/min in data set [1] (0.03 μM); -0.9 nmol/mg/min in data set [1] (0.05 μM); -1.6 nmol/mg/min in data set [1] (0.1 μM); 2.5 nmol/mg/min in data set [1] (0.42 μM). Further, the “ATPase Activity, basal activity subtracted” value worked out at 11.1 nmol/mg/min in data set [1] (1.67 μM), 12.8 nmol/mg/min in data set [1] (3.33 μM) and 14.4 nmol/mg/min in data set [1] (6.67 μM). Moreover, the “transport by human PGP (in words)” value on human PGP was “significantly transported by human PGP”.
